Results from paper PMC4208647, “Essential role of vesicular nucleotide transporter in vesicular storage and release of nucleotides in platelets” (Physiological Reports, 2014).
Where two headings read alike, the source gives them in different places.

Assays:
Assay type in all cases: biochemical
[1] = molecular target: T1, VAChT (vesicular acetylcholine transporter) (Homo sapiens, UniProt Q16572); test: inhibition of ATP-driven radiolabelled substrate uptake into proteoliposomes with F-ATPase
T1 construct: gene SLC18A3; recombinant, expressed in insect cells or E. coli, Ni-NTA purified, co-reconstituted with bacterial F-ATPase in liposomes
T1 sequence (Q16572 1-532): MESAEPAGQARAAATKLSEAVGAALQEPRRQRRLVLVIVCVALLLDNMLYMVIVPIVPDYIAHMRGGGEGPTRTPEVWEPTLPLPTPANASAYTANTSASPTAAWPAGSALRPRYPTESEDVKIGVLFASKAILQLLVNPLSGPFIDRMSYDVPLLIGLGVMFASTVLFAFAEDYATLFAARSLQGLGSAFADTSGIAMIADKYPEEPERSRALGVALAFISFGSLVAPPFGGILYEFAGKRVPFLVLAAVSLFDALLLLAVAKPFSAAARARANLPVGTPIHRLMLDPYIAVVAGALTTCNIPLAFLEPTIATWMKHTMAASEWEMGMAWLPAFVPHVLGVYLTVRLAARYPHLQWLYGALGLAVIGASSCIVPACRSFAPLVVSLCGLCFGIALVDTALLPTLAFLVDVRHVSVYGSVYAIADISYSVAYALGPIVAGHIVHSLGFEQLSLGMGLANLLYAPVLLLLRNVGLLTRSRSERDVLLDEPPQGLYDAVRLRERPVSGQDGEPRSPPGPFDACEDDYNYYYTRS
From the text: inhibition of ATP-driven radiolabelled substrate uptake into proteoliposomes with F-ATPase on VAChT (vesicular acetylcholine transporter)

[2] = molecular target: T2, VNUT (vesicular nucleotide transporter, SLC17A9 protein) (Homo sapiens, UniProt Q9BYT1); test: inhibition of valinomycin-evoked radiolabelled substrate uptake into proteoliposomes
T2 construct: recombinant, expressed in insect cells or E. coli, octylglucoside-solubilized, Ni-NTA purified, reconstituted in asolectin liposomes
T2 sequence (Q9BYT1 1-436): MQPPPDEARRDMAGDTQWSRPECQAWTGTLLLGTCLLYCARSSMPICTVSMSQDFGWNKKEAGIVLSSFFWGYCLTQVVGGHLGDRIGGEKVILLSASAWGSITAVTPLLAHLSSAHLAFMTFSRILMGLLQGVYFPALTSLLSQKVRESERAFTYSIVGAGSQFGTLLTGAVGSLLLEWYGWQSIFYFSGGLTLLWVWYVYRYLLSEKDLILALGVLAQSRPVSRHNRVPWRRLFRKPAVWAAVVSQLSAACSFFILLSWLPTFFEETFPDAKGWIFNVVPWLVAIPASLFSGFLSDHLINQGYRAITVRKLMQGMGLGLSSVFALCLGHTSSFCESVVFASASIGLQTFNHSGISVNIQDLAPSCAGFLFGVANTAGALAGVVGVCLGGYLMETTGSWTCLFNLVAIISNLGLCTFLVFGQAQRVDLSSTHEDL

[3] = molecular target: T3, VMAT2 (vesicular monoamine transporter 2) (Rattus norvegicus, UniProt Q01827); test: inhibition of ATP-driven radiolabelled substrate uptake into proteoliposomes with F-ATPase
T3 construct: gene Slc18a2; recombinant, expressed in insect cells or E. coli, Ni-NTA purified, co-reconstituted with bacterial F-ATPase in liposomes
T3 sequence (Q01827 whole entry): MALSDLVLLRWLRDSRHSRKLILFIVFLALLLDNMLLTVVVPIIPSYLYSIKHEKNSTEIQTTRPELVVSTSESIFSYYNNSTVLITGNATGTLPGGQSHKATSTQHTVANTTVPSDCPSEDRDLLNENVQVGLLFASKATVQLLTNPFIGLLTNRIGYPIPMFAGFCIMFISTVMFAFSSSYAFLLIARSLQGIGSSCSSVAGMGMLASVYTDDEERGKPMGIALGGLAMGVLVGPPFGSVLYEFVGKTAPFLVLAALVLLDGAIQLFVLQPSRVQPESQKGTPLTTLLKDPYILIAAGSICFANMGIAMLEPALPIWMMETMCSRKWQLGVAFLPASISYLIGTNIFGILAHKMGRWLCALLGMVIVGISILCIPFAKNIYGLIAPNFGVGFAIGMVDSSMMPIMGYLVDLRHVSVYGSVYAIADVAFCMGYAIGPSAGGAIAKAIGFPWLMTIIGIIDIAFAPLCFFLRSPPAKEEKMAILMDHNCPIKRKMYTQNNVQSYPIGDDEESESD
From the text: inhibition of ATP-driven radiolabelled substrate uptake into proteoliposomes with F-ATPase on VMAT2 (vesicular monoamine transporter 2)

[4] = molecular target: T4, VEAT (vesicular excitatory amino acid transporter) (Mus musculus, UniProt Q8BN82); test: inhibition of valinomycin-evoked radiolabelled substrate uptake into proteoliposomes
T4 construct: gene Slc17a5; recombinant, expressed in insect cells or E. coli, Ni-NTA purified, reconstituted in asolectin liposomes
T4 sequence (Q8BN82 1-495): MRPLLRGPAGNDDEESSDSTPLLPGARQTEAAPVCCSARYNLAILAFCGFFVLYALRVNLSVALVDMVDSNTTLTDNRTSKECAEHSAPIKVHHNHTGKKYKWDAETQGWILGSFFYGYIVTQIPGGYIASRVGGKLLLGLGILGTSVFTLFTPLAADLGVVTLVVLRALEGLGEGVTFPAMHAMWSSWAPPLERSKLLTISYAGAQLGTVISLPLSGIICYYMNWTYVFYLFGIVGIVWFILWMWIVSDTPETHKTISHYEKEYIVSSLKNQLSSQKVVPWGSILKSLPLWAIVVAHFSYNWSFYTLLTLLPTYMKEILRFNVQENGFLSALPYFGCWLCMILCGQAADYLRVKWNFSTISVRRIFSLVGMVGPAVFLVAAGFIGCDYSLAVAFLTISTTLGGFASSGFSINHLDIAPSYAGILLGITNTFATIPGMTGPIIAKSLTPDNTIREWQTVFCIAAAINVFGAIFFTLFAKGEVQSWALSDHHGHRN
From the text: inhibition of valinomycin-evoked radiolabelled substrate uptake into proteoliposomes on VEAT (vesicular excitatory amino acid transporter)

[5] = molecular target: T5, VGAT (vesicular GABA transporter) (Rattus norvegicus, UniProt O35458); test: as above
T5 construct: gene Slc32a1; recombinant, expressed in insect cells or E. coli, Ni-NTA purified, reconstituted in asolectin liposomes
T5 sequence (O35458 1-525): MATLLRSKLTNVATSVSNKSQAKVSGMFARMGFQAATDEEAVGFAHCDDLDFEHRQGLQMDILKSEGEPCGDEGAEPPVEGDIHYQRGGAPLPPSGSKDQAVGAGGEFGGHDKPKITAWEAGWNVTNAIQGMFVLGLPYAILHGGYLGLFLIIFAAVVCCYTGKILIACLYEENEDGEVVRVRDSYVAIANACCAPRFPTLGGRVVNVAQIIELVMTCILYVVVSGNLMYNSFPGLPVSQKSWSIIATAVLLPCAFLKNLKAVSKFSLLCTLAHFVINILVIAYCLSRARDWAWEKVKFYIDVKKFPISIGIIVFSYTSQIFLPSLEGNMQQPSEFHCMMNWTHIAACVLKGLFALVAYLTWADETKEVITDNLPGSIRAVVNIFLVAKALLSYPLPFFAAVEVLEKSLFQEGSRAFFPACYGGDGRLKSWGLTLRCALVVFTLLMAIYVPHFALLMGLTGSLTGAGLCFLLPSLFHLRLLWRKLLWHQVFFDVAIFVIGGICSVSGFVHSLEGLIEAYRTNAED
From the text: inhibition of valinomycin-evoked radiolabelled substrate uptake into proteoliposomes on VGAT (vesicular GABA transporter)

[6] = read-out: IC50 (μmol/L) / Acetoacetate
[7] = read-out: IC50 (μmol/L) / Glyoxylate

Row | SMILES | IC50 [1] [µM] | IC50 [2, 6] [µmol/L] | IC50 [3] [µM] | IC50 [4, 6] [µmol/L] | IC50 [5] [µM] | IC50 [2, 7] [µmol/L] | IC50 [4, 7] [µmol/L]
1 | CC(=O)CC(=O)O [acetoacetate] | > 10000 | 190 | > 10000 | 130 | > 10000 |  | 
2 | O=CC(=O)O [glyoxylate] | > 10000 |  | > 10000 |  | > 10000 | 4.1 | 52
